Source: ChEMBL document CHEMBL1743341, “Cytochrome p450 enzymes mechanism based inhibitors: common sub-structures and reactivity” (Curr Drug Metab, 2005)
Blank lines part the entries; values can stand above or below the compound they belong to.

Legend:
Format in all cases: ADME
[1] = target: Cytochrome P450 2E1 (Homo sapiens, UniProt P05181); assay: Mechanism based inhibition of human cytochrome P450 2E1
[2] = target: T1, Cytochrome P450 2B1 (Rattus norvegicus, UniProt P00176); assay: Mechanism based inhibition of rat cytochrome P450 2B1
T1 sequence (P00176 whole entry): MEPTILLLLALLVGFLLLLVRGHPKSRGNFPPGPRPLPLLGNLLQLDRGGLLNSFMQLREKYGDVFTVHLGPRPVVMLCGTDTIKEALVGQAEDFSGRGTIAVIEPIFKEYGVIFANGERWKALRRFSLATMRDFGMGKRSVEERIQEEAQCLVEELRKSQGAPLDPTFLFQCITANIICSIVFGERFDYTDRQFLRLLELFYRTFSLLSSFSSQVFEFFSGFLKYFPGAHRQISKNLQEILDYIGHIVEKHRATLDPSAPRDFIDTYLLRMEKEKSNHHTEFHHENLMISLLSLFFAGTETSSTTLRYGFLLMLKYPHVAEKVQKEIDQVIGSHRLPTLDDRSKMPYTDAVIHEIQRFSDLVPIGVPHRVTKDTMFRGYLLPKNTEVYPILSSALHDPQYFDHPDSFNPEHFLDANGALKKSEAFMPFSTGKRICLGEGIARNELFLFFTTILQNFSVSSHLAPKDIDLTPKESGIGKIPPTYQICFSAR

[3] = target: T2, Cytochrome P450 1A1 (Rattus norvegicus, UniProt P00185); assay: (§1) Mechanism based inhibition of rat cytochrome P450 CYP1A1 measured by 7-ethoxyresorufin O-deethylation (EROD)
T2 sequence (P00185 whole entry): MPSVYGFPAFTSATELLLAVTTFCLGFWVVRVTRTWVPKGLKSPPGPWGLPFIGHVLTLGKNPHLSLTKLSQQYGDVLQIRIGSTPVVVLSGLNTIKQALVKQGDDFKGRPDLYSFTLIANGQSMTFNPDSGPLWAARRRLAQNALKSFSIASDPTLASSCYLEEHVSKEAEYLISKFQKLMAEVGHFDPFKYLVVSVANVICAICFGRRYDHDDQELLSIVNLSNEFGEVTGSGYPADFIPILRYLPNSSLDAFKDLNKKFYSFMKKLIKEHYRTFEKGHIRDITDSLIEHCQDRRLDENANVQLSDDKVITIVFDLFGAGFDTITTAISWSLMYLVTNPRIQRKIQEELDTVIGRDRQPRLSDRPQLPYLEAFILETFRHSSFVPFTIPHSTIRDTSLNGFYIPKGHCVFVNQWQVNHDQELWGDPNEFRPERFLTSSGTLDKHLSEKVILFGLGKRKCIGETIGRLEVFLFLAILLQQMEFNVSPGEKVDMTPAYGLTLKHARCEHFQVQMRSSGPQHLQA

[4] = target: Cytochrome P450 2E1 (Rattus norvegicus, UniProt P05182); assay: Mechanism based inhibition of rat cytochrome P450 CYP2E1
Cytochrome P450 2E1 (Rattus norvegicus, UniProt P05182), sequence (P05182 whole entry): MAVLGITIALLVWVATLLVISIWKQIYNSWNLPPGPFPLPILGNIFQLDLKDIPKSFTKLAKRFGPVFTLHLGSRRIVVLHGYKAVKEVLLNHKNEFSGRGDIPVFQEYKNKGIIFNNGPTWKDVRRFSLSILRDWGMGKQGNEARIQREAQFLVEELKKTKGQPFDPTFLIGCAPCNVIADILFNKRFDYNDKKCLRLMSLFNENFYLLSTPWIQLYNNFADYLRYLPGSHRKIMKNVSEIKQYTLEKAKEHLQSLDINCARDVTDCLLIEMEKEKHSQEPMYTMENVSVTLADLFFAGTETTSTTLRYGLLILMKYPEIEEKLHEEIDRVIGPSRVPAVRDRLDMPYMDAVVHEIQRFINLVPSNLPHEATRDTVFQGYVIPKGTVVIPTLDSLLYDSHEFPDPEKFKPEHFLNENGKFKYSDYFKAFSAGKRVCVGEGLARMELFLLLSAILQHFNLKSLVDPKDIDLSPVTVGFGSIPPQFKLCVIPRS

[5] = target: T3, CYP1A1 (Rattus norvegicus, UniProt P00185); assay: as §1; conditions: rat, probe 7-ethoxyresorufin (O-deethylation, EROD)
T3 sequence (P00185 whole entry): T2 sequence (P00185 whole entry)

[6] = target: T4, CYP3A4 (Homo sapiens, UniProt P08684); assay: (§2) Mechanism based inhibition of human cytochrome P450 3A4 measured by (14C)formaldehyde production from (N-methyl-14C)-erythromycin; conditions: human, probe (N-methyl-14C)-erythromycin
T4 sequence (P08684 whole entry): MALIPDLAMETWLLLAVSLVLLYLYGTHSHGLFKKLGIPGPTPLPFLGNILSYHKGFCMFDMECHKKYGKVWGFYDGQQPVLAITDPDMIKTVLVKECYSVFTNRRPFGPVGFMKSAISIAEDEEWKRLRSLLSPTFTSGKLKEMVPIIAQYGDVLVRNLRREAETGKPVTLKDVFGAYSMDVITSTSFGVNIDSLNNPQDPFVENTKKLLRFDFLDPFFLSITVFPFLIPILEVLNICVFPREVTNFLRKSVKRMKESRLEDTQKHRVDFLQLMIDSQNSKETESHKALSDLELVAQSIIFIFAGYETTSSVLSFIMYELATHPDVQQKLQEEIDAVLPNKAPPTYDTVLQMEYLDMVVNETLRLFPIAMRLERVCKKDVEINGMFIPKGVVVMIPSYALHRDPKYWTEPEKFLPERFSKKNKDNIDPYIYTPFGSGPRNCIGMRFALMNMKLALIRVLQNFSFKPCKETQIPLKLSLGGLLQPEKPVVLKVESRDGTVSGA

[7] = target: T5, Cytochrome P450 3A4 (Homo sapiens, UniProt P08684); assay: as §2
T5 sequence (P08684 whole entry): as above

[8] = target: T6, Cytochrome P450 2A6 (Homo sapiens, UniProt P11509); assay: (§3) Mechanism based inhibition of human cytochrome P450 2A6 measured by coumarin 7-hydroxylation
T6 sequence (P11509 whole entry): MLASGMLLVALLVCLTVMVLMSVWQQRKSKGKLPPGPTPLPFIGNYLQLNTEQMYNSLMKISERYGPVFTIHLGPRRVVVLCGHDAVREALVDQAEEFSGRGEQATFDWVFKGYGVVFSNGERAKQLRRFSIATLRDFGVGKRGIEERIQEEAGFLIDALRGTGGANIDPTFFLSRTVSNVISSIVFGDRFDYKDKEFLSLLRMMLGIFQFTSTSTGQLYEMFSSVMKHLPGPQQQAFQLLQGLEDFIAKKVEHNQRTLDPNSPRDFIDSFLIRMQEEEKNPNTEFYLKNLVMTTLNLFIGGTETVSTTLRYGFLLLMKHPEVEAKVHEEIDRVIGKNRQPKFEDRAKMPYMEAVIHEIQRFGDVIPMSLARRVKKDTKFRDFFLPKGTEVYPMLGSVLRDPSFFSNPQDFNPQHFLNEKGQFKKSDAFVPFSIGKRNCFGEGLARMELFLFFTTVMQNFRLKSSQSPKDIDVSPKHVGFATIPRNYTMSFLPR

[9] = target: T7, CYP2A6 (Homo sapiens, UniProt P11509); assay: as §3; conditions: human, probe coumarin
T7 sequence (P11509 whole entry): T6 sequence (P11509 whole entry)

[10] = target: T5, Cytochrome P450 3A4; assay: (§4) Mechanism based inhibition of human cytochrome P450 3A4 measured by testosterone 6-beta hydroxylation
[11] = target: T8, Cytochrome P450 1A2 (Rattus norvegicus, UniProt P04799); assay: (§5) Mechanism based inhibition of rat cytochrome P450 CYP1A2 measured by 7-methoxyresorufin O-demethylation (MROD)
T8 sequence (P04799 whole entry): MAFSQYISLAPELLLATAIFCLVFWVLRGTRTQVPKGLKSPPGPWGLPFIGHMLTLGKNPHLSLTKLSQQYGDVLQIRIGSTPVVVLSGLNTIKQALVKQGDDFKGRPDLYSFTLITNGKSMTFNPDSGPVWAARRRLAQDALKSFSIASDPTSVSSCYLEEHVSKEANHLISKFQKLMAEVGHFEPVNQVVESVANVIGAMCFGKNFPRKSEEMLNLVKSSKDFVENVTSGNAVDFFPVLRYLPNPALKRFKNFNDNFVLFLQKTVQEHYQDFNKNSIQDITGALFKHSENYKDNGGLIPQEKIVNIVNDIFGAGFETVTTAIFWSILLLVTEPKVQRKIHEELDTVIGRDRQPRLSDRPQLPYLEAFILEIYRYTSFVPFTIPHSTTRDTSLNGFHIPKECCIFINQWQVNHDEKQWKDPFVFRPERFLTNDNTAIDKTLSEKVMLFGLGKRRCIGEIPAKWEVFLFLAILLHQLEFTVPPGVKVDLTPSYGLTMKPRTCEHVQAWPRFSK

[12] = target: T9, CYP1A2 (Rattus norvegicus, UniProt P04799); assay: as §5; conditions: rat, probe 7-methoxyresorufin (O-demethylation, MROD)
T9 sequence (P04799 whole entry): T8 sequence (P04799 whole entry)

[13] = target: T4, CYP3A4; assay: as §4; conditions: human, probe testosterone (6-beta hydroxylation)
[14] = target: T1, Cytochrome P450 2B1; assay: Mechanism based inhibition of rat cytochrome P450 CYP2B1 measured by 7-EFC O-deethylation activity; conditions: rat

Cytochrome P450 2E1 (Homo sapiens, UniProt P05181), sequence (P05181 whole entry): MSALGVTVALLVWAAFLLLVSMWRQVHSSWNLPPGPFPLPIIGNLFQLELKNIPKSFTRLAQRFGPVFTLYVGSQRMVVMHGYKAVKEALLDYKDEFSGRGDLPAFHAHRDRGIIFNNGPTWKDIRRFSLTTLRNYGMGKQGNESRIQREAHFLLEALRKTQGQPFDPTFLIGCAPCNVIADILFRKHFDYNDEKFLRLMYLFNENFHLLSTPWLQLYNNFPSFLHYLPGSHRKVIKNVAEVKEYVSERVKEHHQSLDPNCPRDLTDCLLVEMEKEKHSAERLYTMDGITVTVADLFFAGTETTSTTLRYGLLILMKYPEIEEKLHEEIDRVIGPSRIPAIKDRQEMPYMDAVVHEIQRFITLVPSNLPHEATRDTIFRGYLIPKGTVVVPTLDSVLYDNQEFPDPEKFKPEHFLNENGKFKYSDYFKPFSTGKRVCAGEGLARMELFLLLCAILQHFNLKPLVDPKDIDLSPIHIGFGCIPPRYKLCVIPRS

Compound: COc1cc(CNC(=O)CCCC/C=C/C(C)C)ccc1O [CAPSAICIN]
mechanism based inhibition [1]: Cytochrome P450 mechanistic inhibitor: PMID 7746093

Ki [2]: 31 µM
Compound: S=P(N1CC1)(N1CC1)N1CC1 [THIOTEPA]

Compound: CC#Cc1ccc2ccccc2c1
mechanism based inhibition ([3]; rat): Cytochrome P450 mechanistic inhibitor: PMID 9074808

Compound: C/C=C\Cl.Cl/C=C\Cl
mechanism based inhibition [4]: Cytochrome P450 mechanistic inhibitor: PMID 9851676

Ki [3]: 8600 nM | kinact [5]: 0.0015 s⁻¹
Compound: C#Cc1ccc(NC(C)=O)cc1

kinact [6]: 0.00422 s⁻¹ | Ki [7]: 82 nM
Compound: COc1cc(C[C@H]2C(O)OC[C@@H]2Cc2ccc3c(c2)OCO3)cc(OC)c1OC (stereo partly specified)

Ki [8]: 9.15 mM | kinact [9]: 0.0008 s⁻¹
Compound: CCCC(CCC)C(=O)O [VALPROIC ACID]

Compound: C=C[C@]1(C)C[C@@H](OC(=O)CSCCN(CC)CC)[C@]2(C)[C@H](C)CC[C@]3(CCC(=O)[C@H]32)[C@@H](C)[C@@H]1O [TIAMULIN]
mechanism based inhibition [10]: Cytochrome P450 mechanistic inhibitor: PMID 7575636

Compound: ClC=C(Cl)Cl [TRICHLOROETHYLENE]
mechanism based inhibition [4]: Cytochrome P450 mechanistic inhibitor: PMID 9851676

Compound: C#Cc1ccc(-c2ccccc2)cc1
Ki [11]: 870 nM | kinact [12]: 0.00167 s⁻¹ | Ki [3]: 270 nM | kinact [5]: 0.001 s⁻¹

Compound: CC#Cc1ccc2ccc3cccc4ccc1c2c34
Ki [11]: 4 nM | kinact [12]: 0.001 s⁻¹ | Ki [3]: 300 nM | kinact [5]: 0.000333 s⁻¹

kinact [13]: 0.00367 s⁻¹ | Ki [10]: 240 nM
Compound: CC(C)CN(C[C@@H](O)[C@H](Cc1ccccc1)NC(=O)[C@@H](NC(=O)CNCc1cccc(F)c1)C(C)(C)C)S(=O)(=O)c1cccc(N)c1

kinact [6]: 0.00375 s⁻¹ | Ki [7]: 142 nM
Compound: OC[C@H](Cc1ccc2c(c1)OCO2)[C@H](CO)Cc1ccc2c(c1)OCO2 [DIHYDROCUBEBIN]

Compound: C#Cc1cc2cccc3ccc4cccc1c4c32
Ki [11]: 1200 nM | kinact [12]: 0.005 s⁻¹ | Ki [3]: 10 nM | kinact [5]: 0.00117 s⁻¹

Compound: O=NOO [PEROXYNITRITE]
mechanism based inhibition [2]: Cytochrome P450 mechanistic inhibitor: PMID 12588183 | mechanism based inhibition [14]: Cytochrome P450 mechanistic inhibitor: PMID 9760281

mechanism based inhibition [10]: Cytochrome P450 mechanistic inhibitor
Compound: CCC[C@@H](NC(=O)N1C(=O)C(CC)(CC)[C@@H]1Oc1ccc(C(=O)N2CCN(C)CC2)cc1)c1ccc2c(c1)OCO2
